Reference: ChEMBL document CHEMBL1148916, “Additional cytotoxic sterols and saponins from the starfish certonardoa semiregularis” (2004)
Converted amounts (≈) assume the structure as drawn.

Assays:
Format in all cases: functional
Settings in all cases: read-out: ED50 (the source's name)
[1] = test system: A549; assay: Cytotoxicity against human A549 cells
[2] = test system: SK-OV-3; assay: Cytotoxicity against human SKOV3 cells
[3] = test system: SK-MEL-2; assay: Cytotoxicity against human SK-MEL-2 cells
[4] = test system: XF498; assay: Cytotoxicity against human XF498 cells
[5] = test system: HCT-15; assay: Cytotoxicity against human HCT15 cells

C=C(CC[C@@H](C)[C@H]1CC(=O)C2=C3C[C@H](O)[C@H]4[C@@H](O)[C@@H](O)CC[C@]4(C)[C@H]3CC[C@@]21C)[C@H](C)CO [CERTONARDOSTEROL Q5]
EC50 [1]: > 30 µg/mL
EC50 [2]: > 30 µg/mL
EC50 [3]: > 30 µg/mL
EC50 [4]: > 30 µg/mL
EC50 [5]: > 30 µg/mL

CO[C@H]1[C@H](O[C@H]2[C@H](O[C@@H](CC[C@@H](C)[C@H]3C[C@@H](O)[C@H]4[C@@H]5C[C@H](O)[C@H]6[C@@H](O)[C@@H](O)CC[C@]6(C)[C@H]5CC[C@@]43C)C(C)C)O[C@H](CO)[C@@H]2O)OC[C@@H](O)[C@@H]1O [CERTONARDOSIDE H3]
EC50 [1]: 3.65 µg/mL (≈ 4.99 µM)
EC50 [2]: 2.8 µg/mL (≈ 3.83 µM)
EC50 [3]: 0.82 µg/mL (≈ 1.12 µM)
EC50 [4]: 0.52 µg/mL (≈ 0.711 µM)
EC50 [5]: 7.2 µg/mL (≈ 9.85 µM)

CC(C)[C@@H](O)CC[C@@H](C)[C@H]1CC(=O)C2=C3C[C@H](O)[C@H]4[C@@H](O)[C@@H](O)CC[C@]4(C)[C@H]3CC[C@@]21C [CERTONARDOSTEROL Q7]
EC50 [1]: 4.58 µg/mL (≈ 10.2 µM)
EC50 [2]: 6.65 µg/mL (≈ 14.8 µM)
EC50 [3]: 4.66 µg/mL (≈ 10.4 µM)
EC50 [4]: 3.8 µg/mL (≈ 8.47 µM)
EC50 [5]: 7.1 µg/mL (≈ 15.8 µM)

CC(C)[C@H](CC[C@@H](C)[C@H]1C[C@@H](O)[C@H]2[C@@H]3C[C@H](O)[C@H]4[C@@H](O)[C@@H](O)CC[C@]4(C)[C@H]3CC[C@@]21C)O[C@@H]1O[C@H](CO)[C@H](O)[C@H]1O [CERTONARDOSIDE H4]
EC50 [1]: > 30 µg/mL
EC50 [2]: > 30 µg/mL
EC50 [3]: 8.3 µg/mL (≈ 14.2 µM)
EC50 [4]: > 30 µg/mL
EC50 [5]: > 30 µg/mL

C[C@H](CO)CCC[C@@H](C)[C@H]1C[C@@H](O)[C@@H]2[C@]1(C)CC[C@@H]1[C@@]3(C)CC[C@H](O)[C@H](O)[C@@H]3[C@@H](O)C[C@]12O [CERTONARDOSTEROL A3]
EC50 [1]: 11.7 µg/mL (≈ 25 µM)
EC50 [2]: 16.2 µg/mL (≈ 34.6 µM)
EC50 [3]: 5.24 µg/mL (≈ 11.2 µM)
EC50 [4]: 18.6 µg/mL (≈ 39.7 µM)
EC50 [5]: 20.3 µg/mL (≈ 43.3 µM)

CC(/C=C/[C@@H](C)[C@H]1C[C@@H](O)[C@H]2[C@@H]3C[C@H](O)[C@H]4[C@@H](O)[C@@H](O)CC[C@]4(C)[C@H]3CC[C@@]21C)CO (stereo not given in full) [CERTONARDOSTEROL B3]
EC50 [1]: 12.5 µg/mL (≈ 28.6 µM)
EC50 [2]: 12.1 µg/mL (≈ 27.7 µM)
EC50 [3]: 7.13 µg/mL (≈ 16.3 µM)
EC50 [4]: 14.7 µg/mL (≈ 33.7 µM)
EC50 [5]: 10.4 µg/mL (≈ 23.8 µM)

CC(C)[C@](O)(CO)CC[C@@H](C)[C@H]1C[C@@H](O)[C@H]2[C@@H]3C[C@H](O)[C@H]4[C@@H](O)[C@@H](O)CC[C@]4(C)[C@H]3CC[C@@]21C [CERTONARDOSTEROL B4]
EC50 [1]: > 30 µg/mL
EC50 [2]: 36.6 µg/mL (≈ 75.8 µM)
EC50 [3]: 7.5 µg/mL (≈ 15.5 µM)
EC50 [4]: > 30 µg/mL
EC50 [5]: > 30 µg/mL

CC(C)[C@@H](O)CC[C@@H](C)[C@H]1CC(=O)C2=C3C[C@H](O)[C@H]4C[C@@H](O)CC[C@]4(C)[C@H]3CC[C@@]21C [CERTONARDOSTEROL Q6]
EC50 [1]: 0.43 µg/mL (≈ 0.994 µM)
EC50 [2]: 0.22 µg/mL (≈ 0.509 µM)
EC50 [3]: 0.17 µg/mL (≈ 0.393 µM)
EC50 [4]: 0.12 µg/mL (≈ 0.277 µM)
EC50 [5]: 0.48 µg/mL (≈ 1.11 µM)

CC(C)[C@@H](O)CC[C@@H](C)[C@H]1CC(=O)[C@@H]2[C@]1(C)CC[C@@H]1[C@@]3(C)CC[C@H](O)[C@H](O)[C@@H]3[C@@H](O)C[C@]12O [CERTONARDOSTEROL Q2]
EC50 [1]: 6.94 µg/mL (≈ 14.9 µM)
EC50 [2]: 6.85 µg/mL (≈ 14.7 µM)
EC50 [3]: 4.2 µg/mL (≈ 9 µM)
EC50 [4]: 4.1 µg/mL (≈ 8.79 µM)
EC50 [5]: 5.82 µg/mL (≈ 12.5 µM)

CC(/C=C/[C@@H](C)[C@H]1C[C@@H](O)[C@@H]2[C@]1(C)CC[C@@H]1[C@@]3(C)CC[C@H](O)[C@H](O)[C@@H]3[C@@H](O)C[C@]12O)[C@@H](C)O (stereo not given in full) [CERTONARDOSTEROL A4]
EC50 [1]: 17 µg/mL (≈ 36.4 µM)
EC50 [2]: 16.4 µg/mL (≈ 35.1 µM)
EC50 [3]: 5.7 µg/mL (≈ 12.2 µM)
EC50 [4]: 28.4 µg/mL (≈ 60.9 µM)
EC50 [5]: 19.3 µg/mL (≈ 41.4 µM)

COc1cccc2c1C(=O)c1c(O)c3c(c(O)c1C2=O)C[C@@](O)(C(=O)CO)C[C@@H]3O[C@H]1C[C@H](N)[C@H](O)[C@H](C)O1 [DOXORUBICIN]
EC50 [1]: 0.04 µg/mL (≈ 0.0736 µM)
EC50 [2]: 0.12 µg/mL (≈ 0.221 µM)
EC50 [3]: 0.05 µg/mL (≈ 0.092 µM)
EC50 [4]: 0.12 µg/mL (≈ 0.221 µM)
EC50 [5]: 0.18 µg/mL (≈ 0.331 µM)

C=C(CC[C@@H](C)[C@H]1CC(=O)[C@@H]2[C@]1(C)CC[C@@H]1[C@@]3(C)CC[C@H](O)[C@H](O)[C@@H]3[C@@H](O)C[C@]12O)[C@H](C)CO [CERTONARDOSTEROL Q1]
EC50 [1]: 12 µg/mL (≈ 25.1 µM)
EC50 [2]: 10.9 µg/mL (≈ 22.8 µM)
EC50 [3]: 5.57 µg/mL (≈ 11.6 µM)
EC50 [4]: 4.95 µg/mL (≈ 10.3 µM)
EC50 [5]: 11.6 µg/mL (≈ 24.2 µM)

C[C@H](CO)CCC[C@@H](C)[C@H]1CC(=O)C2=C3C[C@H](O)[C@H]4[C@@H](O)[C@@H](O)CC[C@]4(C)[C@H]3CC[C@@]21C [CERTONARDOSTEROL Q4]
EC50 [1]: 3.8 µg/mL (≈ 8.47 µM)
EC50 [2]: 4.1 µg/mL (≈ 9.14 µM)
EC50 [3]: 3.4 µg/mL (≈ 7.58 µM)
EC50 [4]: 2.9 µg/mL (≈ 6.46 µM)
EC50 [5]: 4.2 µg/mL (≈ 9.36 µM)

CC(/C=C/[C@@H](C)[C@H]1C[C@@H](O)[C@@H]2[C@]1(C)CC[C@@H]1[C@@]3(C)CC[C@H](O)[C@H](O)[C@@H]3[C@@H](O)C[C@]12O)CO (stereo not given in full)
EC50 [1]: > 30 µg/mL
EC50 [2]: > 30 µg/mL
EC50 [3]: > 30 µg/mL
EC50 [4]: > 30 µg/mL
EC50 [5]: > 30 µg/mL

CC(C)[C@@H](O)CC[C@@H](C)[C@H]1CC(=O)[C@@H]2[C@]1(C)CC[C@@H]1[C@@]3(C)CC[C@H](O)C[C@@H]3[C@@H](O)C[C@]12O [CERTONARDOSTEROL Q3]
EC50 [1]: 5.43 µg/mL (≈ 12 µM)
EC50 [2]: 12.3 µg/mL (≈ 27.3 µM)
EC50 [3]: 7.3 µg/mL (≈ 16.2 µM)
EC50 [4]: 12.6 µg/mL (≈ 28 µM)
EC50 [5]: 13.6 µg/mL (≈ 30.2 µM)
